Laboratory results taken from patent publication US6909000B2, “Bridged bicyclic serine protease inhibitors” (Vertex Pharmaceuticals Incorporated, priority 2001, dated 2005).
Read-outs that look alike come from different tables or passages of the source.

Tests used:
HCV NS3-NS4A protease = HCV NS3-NS4A protease (Hepatitis C virus genotype 1a, UniProt P27958); experiment: Ki determination, HPLC microbore assay with 5AB peptide substrate, tNS3 and KK4A cofactor; type: biochemical
Description: The Ki determinations were performed as follows. The Ki values for some compounds of the present invention are recited above in Table 1.
HPLC Microbore Method for Separation of 5AB Substrate and Products Substrate
NH2-Glu-Asp-Val-Val-(alpha)Abu-Cys-Ser-Met-Ser-Tyr-COOH Stock solution of 20 mM 5AB was made in DMSO w/0.2M DTT. This was stored in aliquots at −20 C.
Buffer: 50 mM HEPES, pH 7.8; 20% glycerol; 100 mM NaCl Total assay volume was 200 μL
The buffer was combined with KK4A, DTT, and tNS3; 177 μL of this solution was distributed each into wells of 96 well plate and incubated at 30° C. for ˜5-10 min. 3 μL of appropriate concentration of test compound dissolved in DMSO (DMSO only for control) was added to each well and incubate at 30° C. for 15 min. Reaction was initiated by addition of 20 μL of 200 μM 5AB substrate (20 μM concentration is equivalent or slightly lower than the Km for 5AB) and incubated for 20 min at 30° C. The reaction was terminated by addition of 50 μL of 10% TFA 200 μL aliquots were transferred to HPLC vials The SMSY product was isolated from substrate and KK4A by the method which follows. Microbore Separation Method • Instrumentation: • Hewlett Packard 1100 • Degasser G1322A • Binary pump G1312A • Autosampler G1313A • Column themostated chamber G1316A • Diode array detector G1315A • Column: Phenomenex Jupiter; 5 micron C18; 300 angstroms; • 150×2 mm; P/O 00F-4053-B0 • Column thermostat: 40° C. • Injection volume: 100 μL • Solvent A=HPLC grade water+0.1% TFA • Solvent B=HPLC grade acetonitrile+0.1% TFA
• Stop time: 17 min • Post-run time: 10 min

[1] = test system: Cells containing hepatitis C virus (HCV) replicon; experiment: HCV replicon cell assay, Taqman real-time RT-PCR of HCV RNA level; type: cell-based; settings: read-out: IC50 (concentration at which 50% inhibition of HCV RNA level is observed)
Description: As set forth above, the compounds of this invention are capable of inhibiting the activity of HCV NS3-NS4A protease. In order to quantitate the activity of the compounds of this invention, cells containing HCV replicon were incubated with the compounds of this invention, and a Taqman Real Time PCR assay was conducted to determine the percentage inhibition of HCV RNA level and the IC50 were calculated therefrom. The result are shown below in Table 1:
Cells containing hepatitis C virus (HCV) replicon were maintained in DMEM containing 10% fetal bovine serum (FBS), 0.25 mg per ml of G418, with appropriate supplements (media A).
On day 1, replicon cell monolayer was treated with a trypsin:EDTA mixture, removed, and then dilutedh media A into a final concentration of 100,000 cells per ml wit. 10,000 cells in 100 ul are plated into each well of a 96-well tissue culture plate, and culture overnight in a tissue culture incubator at 37° C.
On day 2, compounds (in 100% DMSO) were serially diluted into DMEM containing 2% FBS, 0.5% DMSO, with appropriate supplements (media B). The final concentration of DMSO was maintained at 0.5% throughout the dilution series.
The media on the replicon cell monolayer was removed, and then media B containing various concentrations of compounds was added. Media B without any compound was added to other wells as no compound controls.
Cells were incubated with compound or 0.5% DMSO in media B for 48 hours in a tissue culture incubator at 37° C.
At the end of the 48-hour incubation, the media was removed, and the replicon cell monolayer was washed once with PBS and stored at −80° C. prior to RNA extraction.
Culture plates with treated replicon cell monolayers were thawed, and a fixed amount of another RNA virus, such as Bovine Viral Diarrhea Virus (BVDV) was added to cells in each well. RNA extraction reagents (such as reagents from RNeasy kits) were added to the cells immediately to avoid degradation of RNA. Total RNA was extracted according the instruction of manufacturer with modification to improve extraction efficiency and consistency. Finally, total cellular RNA, including HCV replicon RNA, was eluted and stored at −80° C. until further processing.
A Taqman real-time RT-PCR quantification assay was set up with two sets of specific primers and probe. One was for HCV and the other was for BVDV. Total RNA extractants from treated HCV replicon cells were added to the PCR reactions for quantification of both HCV and BVDV RNA in the same PCR well. Experimental failure was flagged and rejected based on the level of BVDV RNA in each well. The level of HCV RNA in each well was calculated according to a standard curve that is run in the same PCR plate. The percentage of inhibition or decrease of HCV RNA level due to compound treatment was calculated using the DMSO or no compound control as 0% of inhibition. The IC50 (concentration at which 50% inhibition of HCV RNA level is observed) was calculated from the titration curve of any given compound.

[2] = 25 nM tNS3, 25 μM KK4A, 20 μM 5AB substrate, 30° C., pH 7.8, read-out: Ki
[3] = HCV replicon cells, 48 hours incubation, 2% FBS, 0.5% DMSO

Sequence of HCV NS3-NS4A protease (P27958 1027-1208, other chains not shown): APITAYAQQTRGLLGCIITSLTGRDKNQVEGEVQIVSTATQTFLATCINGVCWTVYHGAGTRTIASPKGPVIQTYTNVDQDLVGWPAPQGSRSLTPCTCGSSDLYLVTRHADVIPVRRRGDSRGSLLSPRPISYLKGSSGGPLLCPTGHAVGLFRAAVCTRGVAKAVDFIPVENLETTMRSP

Row | Compound | Ki (HCV NS3-NS4A protease; [2]) | IC50 ([1]; 48 h) | Ki (HCV NS3-NS4A protease) | IC50 [1, 3]
1 | CCCC(NC(=O)[C@@H]1[C@H]2CC[C@H](C2)N1C(=O)[C@@H](NC(=O)[C@@H](NC(=O)[C@H](C)NS(C)(=O)=O)C1CCCCC1)C(C)(C)C)C(=O)C(=O)N[C@@H](C)c1ccccc1 (some centres unmarked) [Cmpd 11] | 50 nM | 1230 nM |  | 
2 | CCC[C@H](NC(=O)[C@@H]1[C@H]2CC[C@H](CC2)N1C(=O)C(NC(=O)[C@@H](NC(=O)c1cnccn1)C1CCCCC1)C(C)(C)C)C(=O)C(=O)NC1CC1 (some centres unmarked) [Cmpd 14] |  |  | 125 nM | 1240 nM
3 | CCC[C@H](NC(=O)[C@@H]1[C@H]2CC[C@H](C2)N1C(=O)[C@@H](NC(=O)[C@@H](NC(=O)c1cnccn1)C1CCCCC1)C(C)C)C(=O)C(=O)NC1CC1 [Cmpd 1] | 220 nM | > 1000 nM |  | 
4 | CCC[C@H](NC(=O)[C@@H]1[C@H]2CC[C@H](C2)N1C(=O)[C@@H](NC(=O)[C@@H](NC(=O)c1ncc[nH]1)C1CCCCC1)C(C)(C)C)C(=O)C(=O)N[C@@H](C)c1ccccc1 [Cmpd 12] |  |  | 68 nM | 412 nM
5 | CCC[C@H](NC(=O)[C@@H]1[C@H]2CC[C@H](C2)N1C(=O)[C@@H](NC(=O)[C@@H](NC(=O)c1[nH]c(C)c(C)c1C(C)=O)C1CCCCC1)C(C)(C)C)C(=O)C(=O)NC1CC1 [Cmpd 16] |  |  | 54 nM | < 100 nM
6 | C[C@H](NS(C)(=O)=O)C(=O)N[C@H](C(=O)N[C@H](C(=O)N1[C@@H]2CC[C@@H](C2)[C@H]1C(=O)N[C@@H](CC(F)F)C(=O)C(=O)NC1CC1)C(C)(C)C)C1CCCCC1 [Cmpd 10] |  |  | 28 nM | 10000 nM
7 | CCC[C@H](NC(=O)C1[C@H]2CC[C@H](C2)N1C(=O)[C@@H](NC(=O)[C@@H](NC(=O)c1cnccn1)C1CCCCC1)C(C)(C)C)C(=O)C(=O)NC1CC1 (some centres unmarked) [Cmpd 2] |  |  | 90 nM | 886 nM
8 | CCC[C@H](NC(=O)[C@@H]1[C@H]2CC[C@H](C2)N1C(=O)[C@@H](NC(=O)[C@@H](NC(=O)[C@H](C)NC(=O)C(C)(C)C)C1CCCCC1)C(C)(C)C)C(=O)C(=O)NC1CC1 [Cmpd 15] |  |  | 66 nM | 1300 nM
9 | CCCC(NC(=O)[C@@H]1[C@H]2CC[C@H](C2)N1C(=O)[C@@H](NC(=O)[C@@H](NC(=O)[C@H](CNC(=O)OC)NC(=O)OC)C1CCCCC1)C(C)C)C(=O)C(=O)N[C@@H](C)c1ccccc1 (some centres unmarked) [Cmpd 6] |  |  | 96 nM | 2650 nM
10 | CCCC(NC(=O)[C@@H]1[C@H]2CC[C@H](C2)N1C(=O)[C@@H](NC(=O)[C@@H](NC(=O)[C@H](CNC(=O)OC)NC(=O)OC)C1CCCCC1)C(C)C)C(=O)C(=O)NC1CC1 (some centres unmarked) [Cmpd 4] |  |  | 95 nM | > 10000 nM
11 | CCCC(NC(=O)[C@@H]1[C@H]2CC[C@H](C2)N1C(=O)[C@@H](NC(=O)[C@@H](NC(=O)[C@H](CNC(=O)OC)NC(=O)OC)C1CCCCC1)C(C)(C)C)C(=O)C(=O)N[C@@H](C)c1ccccc1 (some centres unmarked) [Cmpd 7] |  |  | 49 nM | 449 nM
12 | CCC[C@H](NC(=O)[C@@H]1[C@H]2CC[C@H](C2)N1C(=O)[C@@H](NC(=O)[C@@H](NC(=O)[C@H](C)NS(C)(=O)=O)C1CCCCC1)C(C)(C)C)C(=O)C(=O)NC1CC1 [Cmpd 9] | 55 nM | 4310 nM |  | 
13 | CCC[C@H](NC(=O)[C@@H]1[C@H]2CC[C@H](C2)N1C(=O)[C@@H](NC(=O)[C@@H](NC(=O)c1ncc[nH]1)C1CCCCC1)C(C)(C)C)C(=O)C(=O)NC1CC1 [Cmpd 13] |  |  | 42 nM | 251 nM
14 | CCCC(NC(=O)[C@@H]1[C@H]2CC[C@H](C2)N1C(=O)[C@@H](NC(=O)[C@@H](NC(=O)c1cnccn1)C1CCCCC1)C(C)(C)C)C(=O)C(=O)N[C@@H](C)c1ccccc1 (some centres unmarked) [Cmpd 8] |  |  | 110 nM | 679 nM
15 | CCCC(NC(=O)[C@@H]1[C@H]2CC[C@H](C2)N1C(=O)[C@@H](NC(=O)[C@@H](NC(=O)[C@H](CNC(=O)OC)NC(=O)OC)C1CCCCC1)C(C)(C)C)C(=O)C(=O)NC1CC1 (some centres unmarked) [Cmpd 5] |  |  | 39 nM | 1410 nM
16 | CC(C)(C)[C@H](NC(=O)[C@@H](NC(=O)c1cnccn1)C1CCCCC1)C(=O)N1C(C(=O)NC(CC(F)F)C(=O)C(=O)NC2CC2)[C@H]2CC[C@@H]1C2 (some centres unmarked) [Cmpd 3] |  |  | 63 nM | 632 nM
